Columns and labels:
Format in all cases: physicochemical
[1] = Interfacial tension measurements, water/oil pendant drop test (CMC from interfacial tension-concentration graph)
Description: To test the amphiphilic properties of each molecule, we measured the water/oil interfacial tension using pendant drop test. In a typical test, we inject the organic solution with surfactants slowly into the water phase with a bent needle with 1 mm diameter. The interfacial tension is calculated by the force balance with the buoyancy force. The critical micelle concentration (CMC) can be obtained by checking the critical point of interfacial tension-concentration graph. […] The CMC of MAX10 and MAX8 are around 2.5 mg/mL.

[2] = quick emulsion test in ethyl acetate and water; conditions: non-miscible system of ethyl acetate and water, mixture neutralized until pH 7, FIG. 1a
Excerpt: The mixture was neutralized until pH 7, and dissolved in a non-miscible system of ethyl acetate and water to do a quick emulsion test.

[3] = Emulsion stability measurements (water/cyclohexane emulsions, bright-field microscope); conditions: water/oil emulsion (67% water and 33% cyclohexane) containing 1% surfactant, FIG. 2
Description: The emulsions were prepared by mixing 1 ml of water (with 1 mg/ml of Acian blue dye) and 2 ml cyclohexane containing 3,5-O-dodecylidene-xylose or 2-((dodecyloxy)methyl) tetrahydrofuran-3,4-diol) at a concentration of 0.1% and then mixed by vortex for 30 s.
Emulsions were characterized using a bright-field microscope (Leitz Ergolux) during the storage after preparation. […] Besides, a water/oil emulsion (67% water and 33% cyclohexane) containing 1% 3,5-O-dodecylidene-xylose was kept for about 1 year to observe its possible destablization.

[4] = Accelerated aqueous decomposition test (boiling in water, HPLC); conditions: FIG. 16
Description: HPLC analyses for the accelerated aqueous decomposition of MAXn were performed using a HPX-87H Column (300 mm×7.8 mm; column temperature=60° C.) using pH 2 water as eluent (flow rate=0.6 ml·min^−1, Vinj=20 μL) with 1260 Refractive Index Detector (RID) (G1362A)
To gain insight into the degradation products of 1,2-O-dodecylidene-xylose (MAX12) in water, an accelerating aging test was performed by boiling it in water. Samples were taken at various time points and analyzed by HPLC (pH2 aqueous-phase chromatography, HPX-87H Column (300 mm×7.8 mm; 125-0140), 1260 Refractive Index Detector (RID) (G1362A), flow rate=0.6 ml·min^−1, Vinj=20 μL, column temperature=60° C.). […] And to our knowledge, fatty aldehydes can be oxidized into fatty acids catalyzed by the aldehyde dehydrogenase enzyme. Xylose and fatty acids are readily biodegradable.

[5] = water/oil interfacial tension, FIG. 7

In the case of `CCCCCCCCCCCCOCC1OCC(O)C1O` (centres unmarked) [2-((dodecyloxy)methyl)tetrahydrofuran-3,4-diol], the “interfacial tension plateau value” ([1]; cyclohexane/water) is reported as “about 1.0 mN/m” and the “critical micelle concentration (CMC)” value ([1]; cyclohexane/water, FIG. 8) is reported as “around 0.5 g/L”.
For 3,5-O-octylidene-xylose [MAX8], the “critical micelle concentration (CMC)” value [1, 5] was “around 2.5 mg/mL”.
In the case of `CCCCCCCCO` [1-octanol], the “phase separation / formation of emulsion” value [2] is reported as “phase separated”.
For 3,5-O-decylidene-xylose [MAX10], the “critical micelle concentration (CMC)” value [1, 5] was “around 2.5 mg/mL”.
In the case of 3,5-O-dodecylidene-xylose [MAX12], the “state of emulsion after about 1 year storage” value [3] is reported as “most of the volume maintained the form of emulsion”, the “critical micelle concentration (CMC)” value [1, 5] is reported as 0.35 mg/mL and the “time to cleavage into xylose and fatty aldehyde” value [4] is reported as 2 days.

— patent US20250243233A1, “BIOBASED SURFACTANTS” (ECOLE POLYTECHNIQUE FEDERALE DE LAUSANNE (EPFL), priority 2022, published 2025)
